Experimental data reported in PubChem BioAssay AID330 (DTP/NCI, 2004).
Values joined by “and” are separate entries in the source; they are usually repeats but may differ in a detail not shown here. Identical values can stand only once. Toxic doses and inconclusive results are not listed.

System: P388 leukemia ip, CD2F1 mice, survival T/C
Test: NCI In Vivo Anticancer Drug Screen. Data for tumor model P388 Leukemia (intraperitoneal) in CD2F1 (CDF1) mice
Details: endpoint: median survival time, higher = longer survival
How it was run: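 Mice carrying the transplanted tumor received test compound or vehicle. Survival was recorded in each group, and the value is the treated-group measurement divided by that of the vehicle-treated control group.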

[1] = dose: 50.0 mg/kg/injection, schedule: Q01DX005 (ip), vehicle: saline
[2] = dose: 100.0 mg/kg/injection, schedule: Q04DX003 (ip), vehicle: Klucel (hydroxypropylcellulose) (HPC)
[3] = dose: 200.0 mg/kg/injection, schedule: Q04DX003 (ip), vehicle: Klucel (hydroxypropylcellulose) (HPC)
[4] = dose: 50.0 mg/kg/injection, schedule: Q01DX005 (ip), vehicle: Klucel (hydroxypropylcellulose) (HPC)
[5] = dose: 100.0 mg/kg/injection, schedule: Q01DX005 (ip), vehicle: Klucel (hydroxypropylcellulose) (HPC)
[6] = dose: 200.0 mg/kg/injection, schedule: Q01DX005 (ip), vehicle: Klucel (hydroxypropylcellulose) (HPC)
[7] = dose: 100.0 mg/kg/injection, schedule: Q04DX003 (ip), vehicle: saline with Tween-80
[8] = dose: 50.0 mg/kg/injection, schedule: Q01DX009 (ip), vehicle: Klucel (hydroxypropylcellulose) (HPC)
[9] = dose: 100.0 mg/kg/injection, schedule: Q01DX009 (ip), vehicle: Klucel (hydroxypropylcellulose) (HPC)

For COCC1(O)C=CC(=O)O1 (stereo not drawn), which T/C [1] is on record?
The T/C was 105 % of control.

What does the source list for CC(=O)Oc1cccnc1C(C#N)C#N?
T/C (dose: 12.5 mg/kg/injection, schedule: Q01DX005 (ip), vehicle: saline with Tween-80): 108 % of control; T/C (dose: 25.0 mg/kg/injection, schedule: Q01DX005 (ip), vehicle: saline with Tween-80): 94 % of control

Which T/C (dose: 60.0 mg/kg/injection, schedule: Q01DX005 (ip), vehicle: saline with Tween-80) does the source give for COc1nc(NC2OC(COC(C)=O)C(OC(C)=O)C(OC(C)=O)C2OC(C)=O)c2ccoc2n1 (stereo not drawn) here?
Its T/C is 100 % of control.

What about the T/C (dose: 120.0 mg/kg/injection, schedule: Q01DX005 (ip), vehicle: saline with Tween-80) of the same molecule?
Its T/C is 101 % of control.

And the T/C (dose: 240.0 mg/kg/injection, schedule: Q01DX005 (ip), vehicle: saline with Tween-80)?
The T/C was 98 % of control.

How did the T/C [2] turn out when NC(=O)c1[nH]c(N=Nc2ccc(S(N)(=O)=O)cc2)nc1N was run?
The T/C was 100 % of control.

And the T/C [3]?
Its T/C is 101 % of control.

And the T/C (dose: 400.0 mg/kg/injection, schedule: Q04DX003 (ip), vehicle: Klucel (hydroxypropylcellulose) (HPC))?
Its T/C is 94 % of control.

O=C(O)c1cc(=O)cc(-c2ccccc2)o1 was tested. Which T/C [4] did it give?
Its T/C is 98 % of control.

What about the T/C [5] of the same molecule?
The T/C was 97 % of control.

And the T/C [6]?
Its T/C is 101 % of control.

What does the source list for CN(C)C(=S)/N=C1/SCS(=O)(=O)N1c1ccccc1?
T/C (dose: 50.0 mg/kg/injection, schedule: Q04DX003 (ip), vehicle: saline with Tween-80): 98 % of control; T/C [7]: 104 % of control; T/C (dose: 200.0 mg/kg/injection, schedule: Q04DX003 (ip), vehicle: saline with Tween-80): 95 % of control

Which T/C (dose: 60.0 mg/kg/injection, schedule: Q01DX005 (ip), vehicle: saline) does the source give for O=P1(NCCCNP2(=O)OC(CCl)=NC2c2ccccc2Cl)OC(CCl)=NC1c1ccccc1Cl (stereo not drawn) here?
Its T/C is 93 % of control.

And the T/C (dose: 120.0 mg/kg/injection, schedule: Q01DX005 (ip), vehicle: saline)?
Its T/C is 98 % of control.

And the T/C (dose: 240.0 mg/kg/injection, schedule: Q01DX005 (ip), vehicle: saline)?
Its T/C is 103 % of control.

What does the source list for Cc1cc(NC(=O)Nc2cc(Cl)ccc2C)no1?
T/C (dose: 60.0 mg/kg/injection, schedule: Q01DX005 (ip), vehicle: Klucel (hydroxypropylcellulose) (HPC)): 87 % of control; T/C (dose: 120.0 mg/kg/injection, schedule: Q01DX005 (ip), vehicle: Klucel (hydroxypropylcellulose) (HPC)): 93 % of control; T/C (dose: 240.0 mg/kg/injection, schedule: Q01DX005 (ip), vehicle: Klucel (hydroxypropylcellulose) (HPC)): 93 % of control

Which results are given for O=[N+]([O-])c1cccc(C2CC(c3ccccc3)=Nc3ccccc3S2)c1 (stereo not drawn)?
T/C [8]: 107 % of control; T/C [9]: 100 % of control

Which T/C [2] does the source give for N#CC1CCC(c2ccccc2)(c2ccccc2)C1=O (stereo not drawn) here?
Its T/C is 94 % of control.

And the T/C [3]?
Its T/C is 95 % of control.

How did the T/C (dose: 50.0 mg/kg/injection, schedule: Q01DX009 (ip), vehicle: saline with Tween-80) turn out when CC(C)(c1ccc(OCOC(=O)NN)cc1)c1ccc(OCOC(=O)NN)cc1 was run?
Its T/C is 95 % of control.

And the T/C (dose: 100.0 mg/kg/injection, schedule: Q01DX009 (ip), vehicle: saline with Tween-80)?
The T/C was 102 % of control.

How did the T/C (dose: 25.0 mg/kg/injection, schedule: Q01DX009 (ip), vehicle: saline) turn out when S=C(Nc1ccc(Cl)cc1)SC1CCCCC1 was run?
The T/C was 100 % of control.

And the T/C (dose: 50.0 mg/kg/injection, schedule: Q01DX009 (ip), vehicle: saline)?
Its T/C is 102 % of control and 108 % of control.

What about the T/C (dose: 100.0 mg/kg/injection, schedule: Q01DX009 (ip), vehicle: saline) of the same molecule?
The T/C was 118 % of control and 119 % of control.

And the T/C (dose: 200.0 mg/kg/injection, schedule: Q01DX009 (ip), vehicle: saline)?
Its T/C is 124 % of control.

CCCCCCCC(=O)N/N=C/c1ccc(O)c(OCC)c1 was tested. Which T/C (dose: 50.0 mg/kg/injection, schedule: Q01DX005 (ip), vehicle: saline with Tween-80) did it give?
The T/C was 95 % of control.

What about the T/C (dose: 100.0 mg/kg/injection, schedule: Q01DX005 (ip), vehicle: saline with Tween-80) of the same molecule?
Its T/C is 90 % of control.

Which results are given for CN(N)c1nnnn1-c1ccccc1?
T/C [8]: 104 % of control; T/C [9]: 117 % of control; T/C (dose: 200.0 mg/kg/injection, schedule: Q01DX009 (ip), vehicle: Klucel (hydroxypropylcellulose) (HPC)): 113 % of control

Which results are given for COC(=O)C(CCC1CCCCN1)(c1ccccc1)c1ccccc1 (stereo not drawn)?
T/C (dose: 25.0 mg/kg/injection, schedule: Q04DX003 (ip), vehicle: saline with Tween-80): 120 % of control; T/C (dose: 66.0 mg/kg/injection, schedule: Q04DX003 (ip), vehicle: saline with Tween-80): 100 % of control; T/C [7]: 150 % of control and 158 % of control

Which results are given for C=CC(C)(C)C1=CC(=O)C(OC)=CC1=O?
T/C [4]: 100 % of control; T/C [5]: 103 % of control; T/C [6]: 100 % of control

Which T/C [1] does the source give for O=C(O)CCCNC(=O)Cc1ccccc1 here?
The T/C was 93 % of control.

And the T/C (dose: 100.0 mg/kg/injection, schedule: Q01DX005 (ip), vehicle: saline)?
The T/C was 90 % of control.

COc1cc2c(c(OC)c1O)-c1ccc(SC)c(=O)cc1C(NC(C)=O)CC2 (stereo not drawn) was tested. Which T/C (dose: 1.25 mg/kg/injection, schedule: Q01DX009 (ip), vehicle: saline) did it give?
The T/C was 117 % of control.

What does the source list for CC(/C=N\NC(=S)SCc1ccccc1)=N/NC(N)=S?
T/C (dose: 100.0 mg/kg/injection, schedule: Q01DX001 (ip), vehicle: saline): 106 % of control; T/C (dose: 200.0 mg/kg/injection, schedule: Q01DX001 (ip), vehicle: saline): 106 % of control; T/C (dose: 400.0 mg/kg/injection, schedule: Q01DX001 (ip), vehicle: saline): 103 % of control
